From ChEMBL document CHEMBL6134767, “Advances in antibacterial agents for Mycobacterium fortuitum” (2025)
In brackets after ≈: the same amount, converted by molar mass. Counter-ions that a name gives are not always drawn.

Key:
Format in all cases: functional
[1] = system: Mycolicibacterium fortuitum; assay: Antibacterial activity against Mycobacterium fortuitum
[2] = system: Mycolicibacterium fortuitum; assay: Antibacterial activity against Mycobacterium fortuitum ATCC 6841 assessed as reduction in bacterial growth incubated for 72 hrs by Mueller-Hinton broth micro-dilution based assay
[3] = system: Mycolicibacterium fortuitum; assay: Antimycobacterial activity against Mycobacterium fortuitum NCTC 10394 assessed as reduction in microbial growth incubated for 72 hrs by resazurin dye based broth microdilution method
[4] = system: Mycolicibacterium fortuitum; assay: Antimycobacterial activity against Mycobacterium fortuitum ATCC 35931 assessed as reduction in bacterial growth
[5] = system: Mycolicibacterium fortuitum; assay: Antimycobacterial activity against Mycobacterium fortuitum ATCC 6841
[6] = system: Mycolicibacterium fortuitum; assay: Antimycobacterial activity against Mycobacterium fortuitum ATCC 6841 assessed as reduction in microbial growth incubated for 72 hrs by resazurin dye based broth microdilution method
[7] = system: Mycolicibacterium fortuitum; assay: Antibacterial activity against Mycobacterium fortuitum ATCC 6841 assessed as bacterial growth inhibition incubated for 72 hrs by CLSI protocol based micro-dilution method

With `Nc1ccc(-c2nc3cc(-c4ccc5[nH]c(-c6ccc(N)cc6)nc5c4)ccc3[nH]2)cc1` as the molecule, how does the MIC [1] read?
The MIC was 19.2 µM (≈ 8 µg/mL).

Which MIC [2] does the source give for `C=C[C@H](O)C#CC#CC/C=C\CCCCCCC` [FALCARINOL] here?
The MIC was 16.4 µM (≈ 4 µg/mL).

Which MIC [3] does the source give for `C1=C2CCCC/C=C\C=C\CCN3CC[C@@H]4[C@H](CCCCCC/C=C\C=C/CCN(C2)C[C@H]14)C3` [HALICYCLAMINE A] here?
Its MIC is 54 µM.

Which MIC [4] does the source give for `Fc1ccc(C(c2ccc(OCCN3CCCC3)cc2)c2cccs2)cc1` (stereo unspecified) here?
Its MIC is 8.2 µM (≈ 3.13 µg/mL).

Which MIC [3] does the source give for `C[C@@H]([C@H](NC(=O)[C@H](Cc1ccc2ccccc2c1)NC(=O)N[C@@H](Cc1c[nH]c2ccccc12)C(=O)NCC(C)(C)C)C(=O)NC[C@H]1C[C@@H](O)[C@H](n2ccc(=O)[nH]c2=O)O1)N(C)C(=O)CN` here?
Its MIC is 1 µM.

Which MIC [5] does the source give for `CC1(C)CCC2=C(O1)c1ccccc1C(=O)C2=O` [LAPACHONE] here?
The MIC was 0.13 µM (≈ 0.0315 µg/mL).

`COc1cc(Cc2cc(-c3ccc(Cl)cc3)n(-c3ccc(Cl)cc3)c2C)ccc1N1CCNCC1` was tested. Which MIC [1] did it give?
Its MIC is 15.8 µM (≈ 8.02 µg/mL).

For `CCOC(=O)/C=C/C(=O)c1ccc(C(C)(C)C)cc1`, which MIC [1] is on record?
Its MIC is 15.4 µM (≈ 4 µg/mL).

How did the MIC [4] turn out when `CC(=O)c1ccc2c3c4c(c(O)cc(C)c4c(O)c2c1O)C(=O)c1c(O)cc(C)cc1-3` was run?
Its MIC is 0.12 µM (≈ 0.0497 µg/mL).

With `C[C@@H](NC(=O)c1cc([N+](=O)[O-])cc([N+](=O)[O-])c1)c1ccccc1` as the molecule, how does the MIC [1] read?
Its MIC is 1.27 µM (≈ 0.4 µg/mL).

`Fc1ccc(C(c2ccc(OCCN3CCCCC3)cc2)c2cccs2)cc1` (stereo unspecified) was tested. Which MIC [4] did it give?
The MIC was 7.9 µM (≈ 3.12 µg/mL).

How did the MIC [6] turn out when `COc1cc([C@](O)(CCN(C)C)[C@@H](c2cc3cc(Br)ccc3nc2OC)c2ccnc(OC)c2OC)cc(OC)n1` was run?
Its MIC is 0.9 µM.

`C[C@H](OC(=O)c1cc([N+](=O)[O-])cc([N+](=O)[O-])c1)c1ccccc1` was tested. Which MIC [1] did it give?
The MIC was > 10.3 µM.

`CC1(C)[C@@H](O)C[C@H](O)[C@]2(C)[C@H]3CC=C4[C@@H]5C[C@](C)(C(=O)O)CC[C@]5(C)CC[C@@]4(C)[C@]3(C)CC[C@@H]12` was tested. Which MIC [1] did it give?
The MIC was 3.2 µM (≈ 1.51 µg/mL).

How did the MIC [4] turn out when `COc1cc(OC)c2c(ccc3cc(O)c(O)cc32)c1` was run?
Its MIC is 92.5 µM (≈ 25 µg/mL).

`O=S(=O)(O)c1ccc(-c2c3nc(c(-c4ccc(S(=O)(=O)O)cc4)c4ccc([nH]4)c(-c4ccc(S(=O)(=O)O)cc4)c4nc(c(-c5ccc(S(=O)(=O)O)cc5)c5ccc2[nH]5)C=C4)C=C3)cc1` was tested. Which MIC [4] did it give?
Its MIC is 100 µM (≈ 93.5 µg/mL).

`C/C=C/c1cc(OC)c2c(c1)[C@@H](C)[C@H](c1ccc(O)c(OC)c1)O2` [LICARINE A] was tested. Which MIC [5] did it give?
Its MIC is 0.12 µM (≈ 0.0392 µg/mL).

For `O=[N+]([O-])c1ccc(C2=NOC(c3ccc(N4CCC(Oc5ccc(OC(F)(F)F)cc5)CC4)cc3)C2)o1` (stereo unspecified), which MIC [6] is on record?
Its MIC is 12.1 µM.

Which MIC [4] does the source give for `COc1ccc(C(c2ccc(OCCN3CCCCC3)cc2)c2cccs2)cc1` (stereo unspecified) here?
Its MIC is 7.67 µM (≈ 3.13 µg/mL).

`CC(C)CCn1cc(NC(=O)c2ccc3[nH]c(C(=O)Nc4cc(C(=O)Nc5ccc(C(=O)NCCN6CCN(C)CC6)n5C)n(CCC(C)C)c4)cc3c2)cc1C(=O)Nc1cc(C(=O)NCCN2CCN(C)CC2)n(C)c1` was tested. Which MIC [3] did it give?
The MIC was 9.5 µM.

With `NC(=O)c1cc([N+](=O)[O-])cc([N+](=O)[O-])c1SC(=S)N1CCCC1` as the molecule, how does the MIC [5] read?
The MIC was 17.5 µM (≈ 6.25 µg/mL).

`C[n+]1c2ccccc2cc2[n-]c3ccccc3c21` [CRYPTOLEPINE HYDROCHLORIDE] was tested. Which MIC [3] did it give?
Its MIC is 59.5 µM.

For `C[C@@H](N)CCCCCC/C=C\CCCCCCCCN`, which MIC [2] is on record?
The MIC was 44 µM (≈ 12.4 µg/mL).

`CC(C)N(CCOc1ccc(C(c2ccc(F)cc2)c2cccs2)cc1)C(C)C` (stereo unspecified) was tested. Which MIC [4] did it give?
The MIC was 15.2 µM (≈ 6.26 µg/mL).

With `C[C@H]1c2cccc(O)c2C(=O)C2=C(O)[C@]3(O)C(=O)C(C(N)=O)=C(O)[C@@H](N(C)C)[C@@H]3[C@@H](O)[C@@H]21` [DOXYCYCLINE ANHYDROUS] as the molecule, how does the MIC [7] read?
Its MIC is 0.56 µM (≈ 0.249 µg/mL).

How did the MIC [6] turn out when `CC(=O)NC[C@H]1CN(c2ccc(N3CCN(c4ccc5nccn5n4)CC3)c(F)c2)C(=O)O1` was run?
Its MIC is 2.2 µM.

Which MIC [1] does the source give for `Cc1ccccc1/C=C/C1=NN(C(=N)N)C(c2ccccc2C)C1` (stereo unspecified) here?
Its MIC is 0.49 µM (≈ 0.156 µg/mL).

How did the MIC [4] turn out when `Fc1ccc(C(c2ccc(OCCN3CCCCCC3)cc2)c2cccs2)cc1` (stereo unspecified) was run?
The MIC was 3.81 µM (≈ 1.56 µg/mL).

How did the MIC [5] turn out when `COc1ncnc(SC(=S)N2CCCC2)c1[N+](=O)[O-]` was run?
Its MIC is 5.19 µM (≈ 1.56 µg/mL).

With `O=c1ccc2ncc(=O)n3c2n1C[C@H]3CN1CCC(NCc2cc3c(cn2)OCCC3)CC1` [GEPOTIDACIN] as the molecule, how does the MIC [6] read?
The MIC was 4.46 µM.

Which MIC [5] does the source give for `N#Cc1cc([N+](=O)[O-])cnc1SC(=S)N1CCCCCC1` here?
Its MIC is 2.48 µM (≈ 0.8 µg/mL).

How did the MIC [1] turn out when `CC(=O)O[C@@H]1[C@@H](OC(C)=O)[C@@H](O)[C@H](OC[C@]2(C)[C@@H](O)C[C@H](O)[C@]3(C)[C@H]4CC=C5[C@@H]6C[C@](C)(C(=O)O[C@@H]7O[C@@H](C)[C@H](O)[C@@H](O)[C@H]7O)CC[C@]6(C)CC[C@@]5(C)[C@]4(C)CC[C@@H]23)O[C@H]1C` was run?
Its MIC is 27.9 µM (≈ 24.2 µg/mL).

How did the MIC [5] turn out when `CCN(CC)C(=S)Sc1ncc([N+](=O)[O-])cc1C#N` was run?
Its MIC is 1.35 µM (≈ 0.4 µg/mL).

How did the MIC [1] turn out when `CN1C(=S)C(=O)c2ccccc21` was run?
Its MIC is 63 µM (≈ 11.2 µg/mL).

`CC(=O)NC[C@H]1CN(c2ccc(-c3ccc(-c4nnnn4C)nc3)c(F)c2)C(=O)O1` was tested. Which MIC [6] did it give?
The MIC was 0.61 µM.

For `O=C1C(=S)N(c2ccccc2)c2ccccc21`, which MIC [1] is on record?
Its MIC is 63 µM (≈ 15.1 µg/mL).

How did the MIC [2] turn out when `CCCCCCCCCCCCCCCC(=O)O` [PALMITIC ACID] was run?
Its MIC is 2 µM (≈ 0.513 µg/mL).

For `CCCCCCCCCCC/C=C\C=C\C(O)CC(=O)O` (stereo unspecified), which MIC [2] is on record?
The MIC was 0.11 µM (≈ 0.0326 µg/mL).

How did the MIC [1] turn out when `CCCCN1C(=S)C(=O)c2ccccc21` was run?
The MIC was 32 µM (≈ 7.02 µg/mL).

Which MIC [2] does the source give for `CCCCC/C=C\C/C=C\CCCCCCCC(=O)O` [LINOLEIC ACID] here?
Its MIC is 14.3 µM (≈ 4 µg/mL).

Which MIC [5] does the source give for `CC(C)(O)[C@@H]1OC2=C(C(=O)c3ccccc3C2=O)[C@H]1O` here?
Its MIC is 45.6 µM (≈ 12.5 µg/mL).
